≈ marks a conversion by molar mass, not a printed value.
Columns and labels:
[1] = system: Staphylococcus aureus ATCC 6538; assay: Determination of the minimum inhibition concentration (MIC value) in microtitre plates; type: cell-based; details: CASO broth, 37° C., 48 hours, optical density at 620 nm, MIC = <20% growth vs growth control
Description: (§1) Determination of the Minimum Inhibition Concentration (MIC Value) in Microtitre Plates Nutrient Medium: Casein-soy flour-peptone broth for the preparation of the precultures of the test bacteria and yeast. Examples of Test Microbes: Bacteria: Staphylococcus aureus ATCC 6538 • Escherichia coli NCTC 8196 (=EC) Procedure: The test substances are predissolved in dimethyl sulphoxide (DMSO) and tested in a dilution series of 1:2. The bacteria are cultivated overnight in CASO broth and sponged off with 10 ml of 0.85% sodium chloride solution (+0.1% TritonX-100). All of the test microbes are adjusted to a microbial count of 1-5×10^6 CFU/ml with 0.85% sodium chloride solution. The test substances are prepipetted at 8 μl per well into microtitre plates. Prediluted microbial suspensions are diluted 1:100 in CASO broth and added at 192 μl per well to the test substances. The test mixtures are incubated at 37° C. for 48 hours. After incubation, the growth is determined by reference to the clouding of the test mixtures (optical density) at 620 nm in a microplate reader. The minimum inhibition concentration (MIC value) is the concentration of substance at which (compared with the growth control) a significant growth inhibition (<20% growth) of the test microbes is established. One microtitre plate is prepared per test microbe and substance concentration. All of the substances are tested in duplicate.

[2] = system: Escherichia coli NCTC 8196; assay: as above; type: cell-based; design: unit not given here; details: CASO broth, 37° C., 48 hours, optical density at 620 nm; MIC = <20% growth vs growth control
Description: as §1

SMILES	MIC Staphylococcus aureus [1] [ppm]	MIC Escherichia coli [2]	MIC ([1]; Staphylococcus aureus, ATCC6538) [µg/mL]
COc1ccc(OCc2ccccc2)c(CO)c1 [(25)]	120	120	
CCCCCCCCCCCCOc1ccc(CO)c(OCCCCCCCCCCCC)c1 [(32)]	60	>120	
C[Si](C)(C)CCCOc1cccc(CO)c1 [(12)]	60	60	
COc1ccc(OCCOc2ccccc2)c(CO)c1 [(18)]	120	60	
CCCCCCCCOc1ccc(CO)cc1 [(11)]		15	15 (≈ 63.5 µM)
C[Si](C)(C)CCCOc1ccccc1CO [(3)]	60	>120	
CCCCCC(C)Oc1ccc(OC)cc1CO (stereo not drawn) [(23)]	60	60	
CCC(CC)Oc1ccccc1CO [(6)]	120	>120	
CCCCCCOc1ccc(CO)cc1 [(10)]	120	60	
C[Si](C)(C)COc1ccccc1CO [(4)]	120	>120	
CCCCCC(C)Oc1ccccc1CO (stereo not drawn) [(7)]	120	>120	
COc1ccc(OC[Si](C)(C)C)c(CO)c1 [(17)]	60	60	
CCCCCCCCOc1cccc(OC)c1CO [(26)]	15	15	
COc1ccc(OC2CCCCC2)c(CO)c1 [(24)]	60	60	
C=CC[Si](C)(C)COc1ccc(CO)cc1OC[Si](C)(C)CC=C [(29)]	120	>120	
CCCCCCCCCCCCOc1ccc(OCCCCCCCCCCCC)c(CO)c1 [(35)]	60	120	
COc1ccc(OCCC[Si](C)(C)C)c(CO)c1 [(16)]	15	>120	

SMILES	MIC Staphylococcus aureus [1] [ppm]	MIC Escherichia coli [2]	MIC ([1]; Staphylococcus aureus, ATCC6538) [µg/mL]
CCC(CC)Oc1ccc(OC)cc1CO [(22)]	60	60	
CCCCCCCCOc1c(CO)cccc1OC [(27)]	30	60	
COCCOCCOc1ccc(CO)cc1 [(9)]	30	60	
C[Si](C)(COc1cccc(CO)c1)c1ccccc1 [(13)]	60	>120	
CCCCCCCCOc1ccc(OC)cc1CO [(21)]	30	30	
OCc1ccc(OC2CCCCC2)cc1OC1CCCCC1 [(33)]	15	>120	
CCCCCCCCOc1ccc(OCCCCCCCC)c(CO)c1 [(34)]	120	60	
CCCCCCCCOc1cccc(CO)c1 [(14)]	15	30	
C[Si](C)(C)CCCOc1ccc(CO)cc1 [(8)]	60	60	
CCCCCCCCOc1ccc(CO)cc1OC [(28)]	30	30	
CCCCCCCCCCCCOc1ccc(CO)cc1OCCCCCCCCCCCC [(31)]	120	>120	
CCCCCC(C)Oc1cccc(CO)c1 (stereo not drawn) [(15)]	120	120	
CCCCCCCCOc1ccc(CO)cc1OCCCCCCCC [(30)]	60	60	
CCCCOc1ccc(OC)cc1CO [(19)]	120	60	
CCCCCCOc1ccc(OC)cc1CO [(20)]	60	60	
CCCCCCCCOc1ccccc1CO [(5)]	60	>120	
